The record followed here is patent US10844049B2, “GLP-1R agonists and uses thereof” (QILU REGOR THERAPEUTICS INC., priority 2018, dated 2020).

The nature of data set [1]: Monkey oral pharmacokinetic (PK) study, non-naïve Cynomolgus male monkeys. It counts as in vivo. The settings on record: Dose 2. How it is done: Appropriate volumes of vehicles (e.g., 2% Tween 80 (v:v) and 0.5% MC (w:v) in saline or 0.5% MC (w:v) in water were then added into the mortar containing the ground compounds, and the mixture was then grinded with a pestle until a homogeneous paste was formed. Additional appropriate volumes of vehicles were added into the mortar containing each compound, and the mixture was grinded further with the pestle until a homogeneous suspension was obtained.
The rest of the vehicle was added to make up the final dosing volume of about 1 mg/mL or 2 mg/mL (i.e., final dosing volume of about 5 mL/kg), and the homogenous suspension was continuously stirred prior to and during the dosing.
Non-naïve Cynomolgus male monkeys (n=3/test article; sourced from Hainan Jingang Biotech Co., Ltd., Nayang Xmtan, Fucheng Town, Qiongshan District, Haikou City, Hainan Province, China); or non-naïve aged, obese, and diabetic male Macaca fascicularis monkeys (n=3/test article, Source: Kunming Biomed International Colony) were used in pre-clinical in vivo studies. All non-naïve Cynomolgus male monkeys were approximately 3 to 5 years old, weighed about 2.5-5 kg, and were within ±20% of the average body weight. All non-naïve aged, obese, and diabetic male Macaca fascicularis monkeys were approximately 12 to 20 years old, weighed about >8-12 kg.
All animals were fasted overnight before dosing, and the food were supplied approximately 4 hours post dose (with free access to water all the time).
Animals were restrained at designated time points for blood sampling. Approximately 500 μL of blood samples was taken via cephalic or saphenous vein into EDTA-K2 tubes. Blood samples were put on wet ice before centrifugation.
For oral administration (PO) of either Dose 1 or Dose 2: blood samples were collected at pre-dose, and at 15 min, 30 min, 1 hr, 2 hr, 4 hr, (6 hr for compounds 19 and 28 with cynomolgus monkeys only), 8 hr, 12 hr, and 24 hr post dose (i.e., 9 or 10 total time points for each compound at each dose).
The blood samples were centrifuged at approximately 2,000-4,000 rpm for about 10-15 minutes at 2-8′C, and each resulting plasma portion was then transferred into an individual tube.
LC-MS/MS methods were developed, and bioanalysis for the test articles in monkey plasma was performed according to the developed LC-MS/MS methods.
Undiluted plasma samples: An aliquot of 20-50 μL plasma sample was mixed with 200 μL of ACN or MeOH containing one of the internal standards (IS, e.g., Diclofenac or Terfenadine). The mixture was then vortexed for about 1-5 min, and centrifuged at about 4,000-5,800 rpm for about 10-15 min. An aliquot of 1 μL supernatant was used for LC-MS/MS analysis.
Pharmacokinetics parameters, including area under the curve (AUC0-t), maximum plasma concentration (Cmax), time to reach maximum plasma concentration (Tmax), oral bioavailability (F %), etc., were calculated using Phoenix software (Version 6.4) and non-compartment model.

The target in data set [2] is T1, GLP1R (Homo sapiens, UniProt P43220). In words: GLP1R cAMP HTRF assay, HEK293/GLP-1R/CRE/Luc (HEK293T cells). It is filed as cell-based. The settings on record: read-out: EC50. In a few lines:
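cAMP accumulation via HTRF after 30 min, 37 °C exposure of 1000 receptor-expressing cells/well to compound (0.5% DMSO final) in IBMX (500 μM)/0.1% BSA DPBS.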
On the technique in general: In TR-FRET formats the signal depends on donor and acceptor labels being close together.

The target of data set [3] is T1, GLP1R. In words: GLP-1R/β-Arrestin recruitment assay (PathHunter eXpress GLP1R CHO-K1 β-Arrestin GPCR Assay). It is filed as cell-based. More on the design: host or cells: PathHunter CHO-K1 GLP1R β-Arrestin cells. The conditions noted are these: averaged Bmax, percentage of control GLP-1 (7-37), highest concentration tested. The source says: GLP-1R agonist activity with respect to β-arrestin recruitment can be determined with a cell-based functional assay using PathHuntcr eXpress GLP1R CHO-K1 β-Arrestin GPCR Assay kit (DiscovcrX Cat #93-0300E2CP0M).
The PathHunter β-Arrestin GPCR assay technology utilizes a β-galactosidase (β-gal) enzyme that is split into two fragments, the smaller Enzyme Donor (ED) and the larger Enzyme Acceptor (EA). These fragments can be fused to two proteins that may interact with each other, such as EA-β-Arrestin and ED-GLP-1R. The fusions can be stably expressed in a test cell line, such as the PathHunter CHO-K1 GLP1R β-Arrestin cells described below.
Independently, these fragment fusions have no β-gal activity; however, in solution or in a living cell, they can be brought together and complement to form an active β-gal enzyme due to the interaction between the fused proteins, thus generating a chemiluminescent signal in the presence of a suitable β-gal substrate.
In this experiment, PathHunter CHO-K1 GLP1R β-Arrestin cells from the assay kit were plated at a density of 1000 or 2000 cells/20 μl/well in a 384-well white/clear bottom plates (Greiner Cat #781098). Frozen cells were quickly thawed and 10 mL of cell plating medium (provided by the kit) was added to thawed cells. Cells were stored in a 37° C. incubator under 5% CO2 and kept for approximately 48 hours until ready to ran the assay.
Reference and test compounds were dissolved in 100% DMSO. 5× concentration of an agonist was prepared in serum free DMEM (Thermo Cat #11965). 5 μL of this solution was added to 20 μL cell medium in assay plate for a final top concentration of 10 μM. Plates were then incubated at 37° C. under 5% CO2 for 90 min.
Following 90 min incubation, detection reagents were made up by combining 1 part Galacton Star Substrate with 5 parts Emerald II™ Solution, and 19 parts of PathHunter Cell Assay Buffer, respectively. 12.5 μL detection reagent was added to each well. The plates were then incubated at room temperature in dark for 60 min. Plates were then read on Envision for 0.1 sec/well.
(§1) EC50 determinations were made from agonist dose-response curves analyzed with a curve fitting program using a 4-parameter logistic dose response equation.
Cells were plated at a density of 1000 or 2000 cells/20 μL/well. Frozen cells were quickly thawed and added to 10 mL of cell plating medium. Cells were stored in a 37° C. incubator under 5% CO2 and left for approximately 48 hours until ready to run the assay.
• 1) Reference agonist compound GLP1 (7-37): dissolved with DMSO to make 1 mM stock solutions, aliquoted and stored at −80° C. • 2) Test compounds (such as the compounds of the invention) came solubilized in 100% DMSO.
Prepare 10× concentration of an agonist in serum free DMEM, and add all solutions into the compound plate. 2.5 μL of this solution was added to 20 μL cell medium in assay plate for a final top concentration of 10 μM. Plates were incubated at 37° C. under 5% CO2 for 30 min. An additional 2.5 μL of Buffer was added to the entire plate for agonist mode and incubated at 37° C. for another 90 min.
Following 90 min incubation, detection reagents were made up as described. 12.5 μL was added to all wells. The plates were then incubated at room temperature in dark for 60 min. Plates were then read on Envision for 0.1 sec/well.
Data analysis: GraphPad Prism 6 was used for establishment of progression curve. EC50S or IC50s were determined by 4-parameter logistic dose response equation.

Data set [4] concerns the target T1, GLP1R. The data set can be described thus: β-Arrestin-mediated GLP1R internalization assay (PathHunter engineered U2OS cells). It is filed as cell-based. Set-up: host or cells: PathHunter engineered U2OS cells. The conditions noted are these: averaged Bmax, percentage of control GLP-1 (7-37), highest concentration tested.
Description: A similar assay can also be used to assess the extent of signal attenuation due to GLP-1R internalization (the β-Arrestin Internalization Assay). In this assay, activated GLP1R Internalization cells were engineered to co-express an untagged GLP1R, Enzyme Acceptor (EA) tagged β-Arrestin, and a ProLink™ (PK) tag localized to the endosomes. Activation of the GLP1R induces β-Arrestin recruitment, which leads to internalization of the Receptor/Arrestin-EA complex in PK-tagged endosomes. This forces complementation of the two β-galactosidase enzyme fragments (EA and PK) to form a functional enzyme that hydrolyzes substrate to generate a chemiluminescent signal. These cells have been modified to prevent long term propagation and expansion using a proprietary compound that has no apparent effect on assay performance.
Specifically, PathHunter engineered U2OS cells from the assay kit (Cat #93-0724E3CP0L) were plated at a density of 2000 cells/20 μL/well in a 384-well white/clear bottom plates (Greiner Cat #781098). Frozen cells were quickly thawed and 10 mL of cell plating medium (provided by the kit) was added to thawed cells. Cells were stored in a 37° C. incubator and kept for approximately 48 hours until ready for the assay.
Reference and test compounds were dissolved in 100% DMSO. 5× concentration of an agonist was prepared in serum free DMEM (Thermo Cat #11965). 5 μL of this solution was added to 20 μL cell medium in assay plate for a final top concentration of 10 μM. Plates were incubated at 37° C. for 180 min.
Following 180 min incubation, detection reagents were made up by combining 1 part Galacton Star Substrate with 5 parts Emerald II™ Solution, and 19 parts of PathHunter Cell Assay Buffer, respectively. 12.5 μL detection reagent was added to each well. The plates were then incubated at room temperature for 60 min. Plates were then read on Envision for 0.1 sec/well.
as §1

Setting [5] is: male, cynomolgus monkey, plasma, oral.

T1 sequence (P43220 24-463): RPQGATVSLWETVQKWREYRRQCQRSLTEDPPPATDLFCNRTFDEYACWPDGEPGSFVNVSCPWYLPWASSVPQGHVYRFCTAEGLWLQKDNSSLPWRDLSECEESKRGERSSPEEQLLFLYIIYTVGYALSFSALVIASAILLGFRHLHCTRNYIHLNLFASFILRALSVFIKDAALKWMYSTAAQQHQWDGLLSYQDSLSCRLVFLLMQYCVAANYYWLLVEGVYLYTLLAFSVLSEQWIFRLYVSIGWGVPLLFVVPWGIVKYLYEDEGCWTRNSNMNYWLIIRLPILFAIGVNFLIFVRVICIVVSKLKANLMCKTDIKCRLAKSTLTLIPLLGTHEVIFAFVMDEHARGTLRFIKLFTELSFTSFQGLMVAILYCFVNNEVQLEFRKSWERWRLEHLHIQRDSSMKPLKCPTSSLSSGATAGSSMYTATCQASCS

Broadly, the Tmax is the time from dosing to the highest level. As a reminder, the bioavailability is the share of a dose that reaches the circulation, judged against a reference dose that is usually intravenous. Turning to `N#Cc1ccc(COc2cccc(C3CCN(Cc4nc5ccc(C(=O)O)cc5n4C[C@@H]4CCO4)CC3)n2)c(F)c1` [Compound 418, reference compound], in data set [1] (setting [5]), the Tmax turned out to be 1.7 h and the bioavailability was 8.17%. In data set [1] (oral), this compound returned an AUC0-24 h of 774 Arbitrary units and a Cmax of 232 Arbitrary unit. In data set [1] (over about 24 hours post oral dosing), the “drop in plasma concentration” value is listed as “about 10 fold”.
As usually defined, the EC50 is the concentration giving half of the maximal effect. Regarding `N#Cc1ccc(COc2cncc(N3CCN(Cc4nc5ccc(C(=O)O)cc5n4C[C@@H]4CCO4)CC3)n2)c(F)c1` [Compound 12, (S)-2-((4-(6-(4-cyano-2-fluorobenzyloxy)pyrazin-2-yl)piperazin-1-yl)methyl)-1-(oxetan-2-ylmethyl)-1 h-benzo[d]imidazole-6-carboxylic acid], the EC50 on GLP1R [2] was at most 15 nM. In addition, on GLP1R [3], the “Bmax (POC)” value turned out to be 9.66 POC.
`O=C(O)c1ccc2nc(CN3CC=C(c4cccc(OCc5ccc(C(F)(F)F)cc5)n4)CC3)n(C[C@@H]3CCO3)c2c1` [Compound 46]: the “Bmax (POC)” value on GLP1R [4] was determined as 27.4 POC. The half-maximal effective concentration (EC50) on GLP1R [2] is at most 15 nM.
Turning to `O=C(O)c1ccc2nc(CN3CC=C(c4cccc(OCc5ccc(C(F)(F)F)nc5)n4)CC3)n(C[C@@H]3CCO3)c2c1` [Compound 45, (S)-1-(oxetan-2-ylmethyl)-2-((4-(6-((6-(trifluoromethyl)pyridin-3-yl)methoxy)pyridin-2-yl)-5,6-dihydropyridin-1(2H)-yl)methyl)-1 h-benzo[d]imidazole-6-carboxylic acid], on GLP1R [4], the “Bmax (POC)” value is reported as 19.1 POC. Also, the 50% effective concentration (EC50) on GLP1R [2] was at most 15 nM.
`O=C(O)c1ccc2nc(CN3CCN(c4cncc(OCc5ccc(Cl)cc5F)n4)CC3)n(C[C@@H]3CCO3)c2c1` [Compound 11, (S)-2-((4-(6-(4-chloro-2-fluorobenzyloxy)pyrazin-2-yl)piperazin-1-yl)methyl)-1-(oxetan-2-ylmethyl)-1 h-benzo[d]imidazole-6-carboxylic acid]: at GLP1R [2], the EC50 was at most 15 nM. The “Bmax (POC)” value at GLP1R [3] is 7.16 POC.
Consider `O=C(O)c1ccc2nc(CN3CCN(c4ccnc(OCc5ccc(Cl)cc5F)n4)CC3)n(C[C@@H]3CCO3)c2c1` [Compound 9, (S)-2-((4-(2-((4-chloro-2-fluorobenzyl)oxy)pyrimidin-4-yl)piperazin-1-yl)methyl)-1-(oxetan-2-ylmethyl)-1H-benzo[d]imidazole-6-carboxylic acid], for which the “Bmax (POC)” value on GLP1R [4] is 27.03 POC. Moreover, the concentration giving a half-maximal response (EC50) at GLP1R [2] was at most 15 nM.
Consider `CS(=O)(=O)NC(=O)c1ccc2nc(CN3CC=C(c4cccc(OCc5ccc(Cl)cc5F)n4)CC3)n(C[C@@H]3CCO3)c2c1` [Compound 47, (S)-2-((4-(6-(4-chloro-2-fluorobenzyloxy)pyridin-2-yl)-5,6-dihydropyridin-1(2H)-yl)methyl)-N-(methylsulfonyl)-1-(oxetan-2-ylmethyl)-1 h-benzo[d]imidazole-6-carboxamide], for which the “Bmax (POC)” value at GLP1R [4] is on record as 22.8 POC. The EC50 on GLP1R [2] was at most 15 nM.
In the case of `Fc1cc(Cl)ccc1COc1cccc(C2=CCN(Cc3nc4ccc(-c5nnn[nH]5)cc4n3C[C@@H]3CCO3)CC2)n1` [Compound 105, (S)-2-((4-(6-(4-chloro-2-fluorobenzyloxy)pyridin-2-yl)-5,6-dihydropyridin-1(2H)-yl)methyl)-1-(oxetan-2-ylmethyl)-6-(1H-tetrazol-5-yl)-1H-benzo[d]imidazole], the “Bmax (POC)” value at GLP1R [4] was found to be 24.2 POC. Moreover, the EC50 on GLP1R [2] is at most 15 nM.
Regarding `N#Cc1ccc(COc2nccc(N3CCN(Cc4nc5ccc(C(=O)O)cc5n4C[C@@H]4CCO4)CC3)n2)c(F)c1` [Compound 10, (S)-2-((4-(2-((4-cyano-2-fluorobenzyl)oxy)pyrimidin-4-yl)piperazin-1-yl)methyl)-1-(oxetan-2-ylmethyl)-1H-benzo[d]imidazole-6-carboxylic acid], on GLP1R [2], the EC50 was at most 150 nM. Further, the “Bmax (POC)” value at GLP1R [3] is given as 4.48 POC.
For `O=C(O)c1ccc2nc(CN3CCN(c4cccc(NCc5ccc(Cl)cc5F)n4)CC3)n(C[C@@H]3CCO3)c2c1` [Compound 1, (S)-2-((4-(6-(4-chloro-2-fluorobenzylamino)pyridin-2-yl)piperazin-1-yl)methyl)-1-(oxetan-2-ylmethyl)-1 h-benzo[d]imidazole-6-carboxylic acid], the EC50 at GLP1R [2] is at most 15 nM. In addition, the “Bmax (POC)” value at GLP1R [3] amounted to 2.80 POC.
